We go through four compounds from ChEMBL document CHEMBL1649358, “Induced production of bromomethylchlamydosporols A and B from the marine-derived fungus Fusarium tricinctum” (2010).

What is called MIC is the smallest concentration in the dilution series that meets the test's criterion for growth inhibition. Read a high MIC as weaker potency.

Molecules are shown by their SMILES. ≈ marks a conversion by molar mass, not a printed value.

Holding throughout (type): functional
The subject of assay [1] is Staphylococcus aureus. Kind of assay: Antibacterial activity against multidrug-resistant Staphylococcus aureus CCARM 3089 after 18 hrs by broth dilution method. The following applies: CCARM 3089, 18 h. (Dilution methods test growth across graded concentrations, often in twofold steps.)
Assay [2] concerns Staphylococcus aureus. In words: Antibacterial activity against methicillin-resistant Staphylococcus aureus CCARM 3167 after 18 hrs by broth dilution method. The following applies: CCARM 3167, 18 h.
Assay [3] has as its system Staphylococcus aureus. Kind of assay: Antibacterial activity against Staphylococcus aureus ATCC 29213 after 18 hrs by broth dilution method. The following applies: ATCC 29213, 18 h.

Take `COc1cc(=O)oc2c1CO[C@@](C)(OC)[C@@]2(C)Br` [BROMOMETHYLCHLAMYDOSPOROL A]: the minimal inhibitory concentration (MIC) in assay [1], in assay [2] and in assay [3] was 15.6 µg/mL (≈ 48.9 µM) each time.
For the compound `C/C=C(\C)[C@H]1[C@@H](/C=C/C=C(\C)[C@@H](O)[C@@H](C)CO)[C@@H]2C[C@@H]3O[C@]3(C)C[C@H]2[C@@H]2O[C@@]21C` [FUSARIELIN A], the MIC in assay [1] is 62.5 µg/mL (≈ 155 µM); in assay [2], 31.5 µg/mL (≈ 78.2 µM); in assay [3], 31.5 µg/mL (≈ 78.2 µM).
As for `COc1c2c(oc(=O)c1Br)C(C)(Br)[C@](C)(OC)OC2` (some centres not stated) [BROMOMETHYLCHLAMYDOSPOROL B], the MIC in assay [1], in assay [2] and in assay [3] was 15.6 µg/mL (≈ 39.2 µM) in each case.
Consider `COc1cc(=O)oc2c1COC(C)(O)[C@H]2C` (mixture of isomers) [CHLAMYDOSPOROL], for which the MIC amounted to 62.5 µg/mL in assay [1], 31.5 µg/mL in assay [2] and 31.5 µg/mL in assay [3].
